{"source": "ChEMBL document CHEMBL4251579", "about": "“Design, synthesis, and biological evaluation of a series of resorcinol-based N-benzyl benzamide derivatives as potent Hsp90 inhibitors” (Eur J Med Chem, 2018)", "key": {"[1]": {"test_system": "SK-BR-3", "assay": "Antiproliferative activity against human SKBR3 cells after 72 hrs by Cell Titer 96 Aqueous One Solution cell proliferation assay", "type": "functional"}, "[2]": {"test_system": "NCI-H1975", "assay": "Antiproliferative activity against human NCI-H1975 cells after 72 hrs by Cell Titer 96 Aqueous One Solution cell proliferation assay", "type": "functional", "details": "NCI-H1975, 72 h"}, "[3]": {"target": "Heat shock protein HSP 90-alpha (Homo sapiens, UniProt P07900)", "assay": "Inhibition of FITC-geldanamycin binding to N-terminal domain of recombinant full-length HSP90alpha (unknown origin) after 16 hrs by fluorescence polarization assay"}}, "note": "The source made the active and inactive calls. No cut-off for these calls is given here.", "data": [{"smiles": "CN(Cc1ccccc1)C(=O)c1cc(Cl)c(O)cc1O", "values": [{"measurement": "GI50", "setting": "[1]; SK-BR-3, 72 h", "result": 18.3, "unit": "µM"}, {"measurement": "GI50", "setting": "[2]", "result": 35.5, "unit": "µM"}]}, {"smiles": "COc1cc(CN(C)C(=O)c2cc(Cl)c(O)cc2O)cc(OC)c1OC", "values": [{"measurement": "GI50", "setting": "[1]; SK-BR-3, 72 h", "result": 30.1, "unit": "µM"}, {"measurement": "IC50", "setting": "[3]", "result": "> 1", "unit": "µM"}, {"measurement": "GI50", "setting": "[2]", "result": 73.1, "unit": "µM"}]}, {"smiles": "Cc1ccc(CN(C)C(=O)c2cc(Cl)c(O)cc2O)cc1", "values": [{"measurement": "GI50", "setting": "[1]; SK-BR-3, 72 h", "result": 7.2, "unit": "µM"}, {"measurement": "GI50", "setting": "[2]", "result": 34.3, "unit": "µM"}]}, {"smiles": "COc1cc(CN(C)C(=O)c2cc(Cl)c(O)cc2O)c(Cl)c(OC)c1OC", "values": [{"measurement": "GI50", "setting": "[1]; SK-BR-3, 72 h", "result": 2.4, "unit": "µM"}, {"measurement": "GI50", "setting": "[2]", "result": 33.8, "unit": "µM"}]}, {"smiles": "CNC(=O)c1ccc(CN(C)C(=O)c2cc(Cl)c(O)cc2O)cc1", "values": [{"measurement": "IC50", "setting": "[3]", "result": 0.496, "unit": "µM"}, {"measurement": "GI50", "setting": "[2]", "result": 34.8, "unit": "µM"}]}, {"smiles": "CCNC(=O)c1ccc(CN(C)C(=O)c2cc(C(C)C)c(O)cc2O)cc1", "values": [{"measurement": "GI50", "setting": "[2]", "result": 0.46, "unit": "µM"}]}, {"smiles": "CCCNC(=O)c1ccc(CN(C)C(=O)c2cc(Cl)c(O)cc2O)cc1", "values": [{"measurement": "GI50", "setting": "[2]", "result": 20.8, "unit": "µM"}]}, {"smiles": "COc1ccc(CN(C)C(=O)c2cc(Cl)c(O)cc2O)cc1OC", "values": [{"measurement": "GI50", "setting": "[1]; SK-BR-3, 72 h", "result": 7.7, "unit": "µM"}, {"measurement": "GI50", "setting": "[2]", "result": 33.4, "unit": "µM"}]}, {"smiles": "O=C(NCc1ccccc1)c1cc(Cl)c(O)cc1O", "values": [{"measurement": "GI50", "setting": "[1]", "result": "inactive"}, {"measurement": "GI50", "setting": "[2]", "result": 86.2, "unit": "µM"}]}]}
